System: psoriasis
Assay: Treatment of an adult with psoriasis with NGNA
Format: in vivo, human
Conditions: compared to previous treatments
Method: Example 2. An adult with psoriasis was treated with 5 mg NGNA per day administered sublingually. Administration caused symptoms associated with the psoriasis including redness, scaling spots, itching, burning and soreness to be reduced as compared to previous treatments.
Example 3. An adult with psoriasis was treated with 5 g NGNA per day administered orally. Administration caused symptoms associated with the psoriasis including redness, scaling spots, itching, burning and soreness to be reduced as compared to previous treatments.
Example 4. An adult with psoriasis was treated with NGNA supplied in a hot water bath.
Example 5. An adult with psoriasis was treated with a dermal spray solution of NGNA in water.

Measured: symptoms associated with the psoriasis including redness, scaling spots, itching, burning and soreness

O=C(CO)N[C@H]1[C@H]([C@H](O)[C@H](O)CO)O[C@](O)(C(=O)O)C[C@@H]1O [NGNA, n-glycolylneuraminic acid]
reduced: 5 mg NGNA per day sublingually | 5 g NGNA per day orally | NGNA supplied in a hot water bath | dermal spray solution of NGNA in water
